This passage reports IC50 results from patent publication EP2913333A1 (priority 2014, dated 2015).

The target in experiment [1] is T1, S. aureus DltA (Staphylococcus aureus, UniProt Q2FZW6).
T1 construct: made in house; host or cells: E. coli BL21
T1 sequence (Q2FZW6 1-485): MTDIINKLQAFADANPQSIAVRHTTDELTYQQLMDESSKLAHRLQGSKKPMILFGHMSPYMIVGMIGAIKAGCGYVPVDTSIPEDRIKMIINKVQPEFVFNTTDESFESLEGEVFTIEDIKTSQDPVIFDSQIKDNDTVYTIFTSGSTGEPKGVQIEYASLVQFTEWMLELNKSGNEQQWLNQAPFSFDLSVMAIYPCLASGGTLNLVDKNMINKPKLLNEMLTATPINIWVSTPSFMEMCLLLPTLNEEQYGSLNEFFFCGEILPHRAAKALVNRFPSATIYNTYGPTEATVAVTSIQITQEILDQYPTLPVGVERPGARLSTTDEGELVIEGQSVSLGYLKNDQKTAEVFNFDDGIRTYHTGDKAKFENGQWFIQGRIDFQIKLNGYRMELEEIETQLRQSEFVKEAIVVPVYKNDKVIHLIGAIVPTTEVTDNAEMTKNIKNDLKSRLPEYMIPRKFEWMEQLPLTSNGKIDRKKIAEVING
Put plainly: in vitro DltA activity assay (luminescence, IC50 determination). Format: biochemical. The method, then:
(§1) The effect of the compounds of the invention on DltA enzymes has been based on the measure of their inhibition of DltA activity in vitro. To this end, recombinant proteins DltA were expressed and purified after cloning of the genes of S. aureus, E. faecalis, E. faecium and S. agalactiae as described thereafter. The capacity of the compounds of the invention to inhibit DltA enzymatic activity was assessed using the DltA assays as described below: • The dltA gene was amplified from chromosomal DNA of S. aureus, E. faecalis, E. faecium and S. agalactiae and introduced into E. coli BL21 (Invitrogen, Carlsbad, CA) following manufacturer's instruction. Bacteria were grown at 37°C under aerobic conditions and isopropyl-beta-D-thiogalactopyranoside (IPTG) was added to 0.5-1 mM when OD600 of the bacterial culture had reached 0.5. After a further incubation for 3 hours, cells were harvested by centrifugation. Purification of the recombinant DltA protein was performed by affinity chromatography on nickel-nitrilotriacetic acid (Ni-NTA) column following manufacturer's instructions (Qiagen). Fractions containing recombinant DltA protein were adjusted to 50% glycerol and stored at -20°C until use.
(§2) The binding potency of the inhibitors against DltA enzyme was assessed by IC50 determination in an in vitro DltA activity assay. The assay buffer "AB" contained 50 mM Hepes pH8.0, 10mM MgCl2, 50mM KCI, 0.012% Triton-X100, 10mM DTT and 100nM Myelin-basic protein. The following components were added in a white polystyrene Costar plate up to a final volume of 30µL: 3µL DMSO, or inhibitor dissolved in DMSO and 27µL DltA enzyme in AB. After 30min of preincubation at room temperature, 30µL of Substrates mix in AB were added in each well to a final volume of 60µL. This reaction mixture was then composed of DltA (produced in house from S. aureus, E. faecalis, E. faecium and S. agalactiae), 0.5mM D-Alanine (Sigma), 0.5-5µM ATP (Sigma) and 0.05 u/ml inorganic pyrophosphatase (Sigma) in assay buffer. After typically 1-2hours of incubation at room temperature (conversion rate around 30%), 30µL of the revelation mix were added to a final volume of 90µL, including the following constituents at the respective final concentrations: 10000 u/ml luciferase (Sigma), 30µM D-luciferin (Sigma), 100µM N-acetylcysteamine (Aldrich). Luminescence intensity was immediately measured on a Fluostar Optima (BMG) (excitation 360nm, emission 520nm) and converted into inhibition percentages.
(§3) For compounds interfering with the luminescent signal (quenching), the same experiment without DltA enzyme was performed to allow quenching determination and correction.

For experiment [2], the target named is T2, E. feacium DltA (Enterococcus faecium, UniProt Q3XZT7).
T2 sequence (Q3XZT7 1-504): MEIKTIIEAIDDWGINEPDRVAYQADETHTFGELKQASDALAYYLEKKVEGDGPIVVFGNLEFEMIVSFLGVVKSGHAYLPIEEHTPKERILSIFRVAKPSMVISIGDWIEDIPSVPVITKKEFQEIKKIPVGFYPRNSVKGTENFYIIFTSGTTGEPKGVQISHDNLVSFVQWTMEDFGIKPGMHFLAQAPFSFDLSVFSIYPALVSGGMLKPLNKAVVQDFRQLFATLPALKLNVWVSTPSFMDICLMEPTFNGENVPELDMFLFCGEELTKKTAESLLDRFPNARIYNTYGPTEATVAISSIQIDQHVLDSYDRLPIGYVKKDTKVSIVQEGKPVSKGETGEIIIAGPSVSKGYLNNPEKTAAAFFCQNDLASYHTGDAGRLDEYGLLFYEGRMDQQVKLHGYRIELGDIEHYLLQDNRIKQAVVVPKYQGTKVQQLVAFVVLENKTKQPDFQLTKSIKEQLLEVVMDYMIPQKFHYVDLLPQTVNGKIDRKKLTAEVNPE
The description is as above. It is filed as biochemical. The note with it: recombinant DltA, 30min preincubation at room temperature, 0.5mM D-Alanine, 0.5-5µM ATP; read-out: E. feacium DltA IC50. On the procedure: as §1, §2, §3

The target in experiment [3] is T3, E. feacalis DltA (Enterococcus faecalis, UniProt Q830N0).
T3 sequence (Q830N0 1-506): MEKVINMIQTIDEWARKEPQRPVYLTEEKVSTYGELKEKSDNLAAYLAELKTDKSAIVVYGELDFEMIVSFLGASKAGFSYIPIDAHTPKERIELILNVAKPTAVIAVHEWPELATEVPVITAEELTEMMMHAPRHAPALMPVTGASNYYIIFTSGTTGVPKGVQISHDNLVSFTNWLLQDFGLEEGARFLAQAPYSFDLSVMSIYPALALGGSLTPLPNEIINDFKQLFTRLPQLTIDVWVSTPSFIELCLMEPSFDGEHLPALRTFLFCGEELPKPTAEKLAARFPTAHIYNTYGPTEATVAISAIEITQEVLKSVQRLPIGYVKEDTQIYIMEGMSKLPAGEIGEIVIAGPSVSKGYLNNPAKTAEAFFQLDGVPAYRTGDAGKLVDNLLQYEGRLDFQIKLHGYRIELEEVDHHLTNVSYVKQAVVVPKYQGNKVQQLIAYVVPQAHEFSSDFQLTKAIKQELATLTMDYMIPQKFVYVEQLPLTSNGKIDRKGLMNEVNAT
The experiment can be described thus: biochemical. The method, then:
as §1, with “To” for “The effect of the compounds of the invention on DltA enzymes has been based on the measure of their inhibition of DltA activity in vitro. To”
as §2, §3

Experiment [4] has as its target T4, S. Agalactiae DltA (Streptococcus agalactiae serotype III, UniProt Q8VM67).
T4 sequence (Q8VM67 1-511): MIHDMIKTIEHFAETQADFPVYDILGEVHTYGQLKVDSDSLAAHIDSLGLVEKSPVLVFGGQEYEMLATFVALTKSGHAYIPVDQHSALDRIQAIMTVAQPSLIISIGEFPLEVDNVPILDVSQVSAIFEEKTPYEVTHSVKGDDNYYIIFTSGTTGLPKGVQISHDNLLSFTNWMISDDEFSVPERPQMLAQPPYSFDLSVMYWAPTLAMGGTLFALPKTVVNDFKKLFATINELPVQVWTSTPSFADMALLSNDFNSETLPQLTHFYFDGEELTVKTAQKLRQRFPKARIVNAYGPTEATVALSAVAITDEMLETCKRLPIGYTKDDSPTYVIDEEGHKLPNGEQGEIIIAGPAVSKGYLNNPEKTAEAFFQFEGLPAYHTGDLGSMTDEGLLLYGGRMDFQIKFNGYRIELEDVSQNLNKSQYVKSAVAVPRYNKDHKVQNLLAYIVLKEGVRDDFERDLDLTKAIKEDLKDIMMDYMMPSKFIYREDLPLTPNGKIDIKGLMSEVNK
The experiment can be described thus: biochemical. The method, then: as §1, with “To” for “The effect of the compounds of the invention on DltA enzymes has been based on the measure of their inhibition of DltA activity in vitro. To”
as §2, §3

`CN1CC=C(c2cn(-c3ccc4c(c3)ncn4C3CCCCC3)c3nc[nH]c(=O)c23)CC1` [Example 53, 7-(1-cyclohexyl-1H-benzoimidazol-5-yl)-5-(1-methyl-1,2,3,6-tetrahydro-pyridin-4-yl)-3,7-dihydro-pyrrolo[2,3-d]pyrimidin-4-one]: the IC50 (commonly the concentration that inhibits the measured activity by half) in experiment [1] came to 150 nM; in experiment [2] it was 94 nM; in experiment [3] it was 13 nM; in experiment [4], 590 nM.

`O=c1[nH]cnc2c1c(C1CCC(CO)C1)cn2-c1ccc2c(c1)ncn2C1CCCCC1` (stereo not drawn) [Example 58, 7-(1-Cyclohexyl-1H-benzoimidazol-5-yl)-5-(3-hydroxymethyl-cyclopentyl)-3,7-dihydro-pyrrolo[2,3-d]pyrimidin-4-one]: the IC50 was found to be 810 nM in experiment [1], 480 nM in experiment [2], 190 nM in experiment [3] and 6100 nM in experiment [4].

As for `O=c1[nH]cnn2c(-c3ccc4c(c3)ncn4C3CCCCC3)cc(N3CC[C@H](CO)C3)c12` [Example 63, 7-(1-Cyclohexyl-1H-benzoimidazol-5-yl)-5-((S)-3-hydroxymethyl-pyrrolidin-1-yl)-3H-pyrrolo[2,1-f][1,2,4]triazin-4-one], the IC50 in experiment [1] was found to be 460 nM; in experiment [2], 1100 nM; in experiment [3] it was 350 nM; in experiment [4], 25000 nM.

With `O=c1[nH]cnc2c(-c3ccc4c(c3)ncn4C3CCCCC3)cn(CCCO)c12` [Example 67, 7-(1-Cyclohexyl-1H-benzimidazol-5-yl)-5-(3-hydroxy-propyl)-3,5-dihydro-pyrrolo[3,2-d]pyrimidin-4-one], the half-maximal inhibitory concentration (IC50) in experiment [1] turned out to be 150 nM; in experiment [2], 930 nM; in experiment [3], 180 nM; in experiment [4] it was 3800 nM.

Regarding `O=c1[nH]cnc2c(-c3ccc4c(c3)ncn4C3CCCCC3)cn(CCCCCO)c12` [Example 68, 7-(1-Cyclohexyl-1H-benzimidazol-5-yl)-5-(5-hydroxy-pentyl)-3,5-dihydro-pyrrolo[3,2-d]pyrimidin-4-one], the IC50 in experiment [1] worked out at 290 nM; in experiment [2] it was 730 nM; in experiment [3], 320 nM; in experiment [4], 4500 nM.

Take `O=c1[nH]cnc2c(-c3ccc4c(c3)ncn4C3CCCCC3)cn(C3CCNCC3)c12` [Example 73, 7-(1-Cyclohexyl-1H-benzimidazol-5-yl)-5-piperidin-4-yl-3,5-dihydro-pyrrolo[3,2-d]pyrimidin-4-one]: the concentration for half-maximal inhibition (IC50) in experiment [1] turned out to be 72 nM; in experiment [2], 280 nM; in experiment [3] it was 61 nM; in experiment [4], 1000 nM.

Regarding `O=c1[nH]cnc2c(-c3ccc4c(c3)ncn4C3CCCCC3)cn([C@H]3CC[C@@H](CO)CC3)c12` [Example 74, 7-(1-Cyclohexyl-1H-benzimidazol-5-yl)-5-[cis-(4-hydroxymethyl-cyclohexyl)]-3,5-dihydro-pyrrolo[3,2-d]pyrimidin-4-one], the IC50 amounted to 150 nM in experiment [1], 140 nM in experiment [2], 93 nM in experiment [3] and 1100 nM in experiment [4].

For `O=c1[nH]cnc2c(-c3ccc4c(c3)ncn4C3CCCCC3)cn([C@H]3CCCNC3)c12` [Example 76, 7-(1-Cyclohexyl-1H-benzimidazol-5-yl)-5-(S)-piperidin-3-yl-3,5-dihydro-pyrrolo[3,2-d]pyrimidin-4-one], the half-maximal inhibitory concentration (IC50) turned out to be 67 nM in experiment [1], 460 nM in experiment [2], 69 nM in experiment [3] and 1200 nM in experiment [4].

In the case of `O=c1[nH]cnc2c(-c3ccc4c(c3)ncn4C3CCCCC3)cn(C3CCNC3)c12` (stereo not drawn) [Example 77, 7-(1-Cyclohexyl-1H-benzimidazol-5-yl)-5-pyrrolidin-3-yl-3,5-dihydro-pyrrolo[3,2-d]pyrimidin-4-one], the IC50 is 93 nM in experiment [1], 510 nM in experiment [2], 130 nM in experiment [3] and 1600 nM in experiment [4].
